Values joined by “and” are separate entries in the source; they are usually repeats but may differ in a detail not shown here. Equal entries are not always repeated.
Key:
KRAS–PI3Kα [1] = biological target: T1, KRAS–PI3Kα (Homo sapiens, UniProt P01116, G12V); test: Cellular nano-BRET, full length PI3Kα binding to KRAS G12C, G12D, G12V; assay type: cell-based; conditions: KRAS G12V, in the presence of CYPA, single replicates;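 further: U2OS cells expressing KRAS4B mutants carrying N-terminal nanoluciferase or HaloTag fusions, with nano-BRET signal measured after inhibitor exposure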
T1 construct: expressed in transfected cells; host or cells: U2OS

KRAS–PI3Kα [2] = biological target: T2, KRAS–PI3Kα (Homo sapiens, UniProt P01116, G12D); test: as above; assay type: cell-based; conditions: KRAS G12D, in the presence of CYPA, single replicates
T2 construct: expressed in transfected cells; host or cells: U2OS

KRAS–PI3Kα [3] = biological target: T3, KRAS–PI3Kα (Homo sapiens, UniProt P01116, G12C); test: as above; assay type: cell-based; conditions: KRAS G12C, in the presence of CYPA, single replicates
T3 construct: expressed in transfected cells; host or cells: U2OS

NRAS^Q61K = NRAS^Q61K (Homo sapiens, UniProt P01111+P62937, Q61K); test: RAS binding affinity of compound-bound CYPA (Kd2), SPR; conditions: steady state SPR, (95% CI)
KRAS–RALGDS [4] = biological target: T4, KRAS–RALGDS (Homo sapiens, UniProt P01116, G12D); test: Cellular nano-BRET, full length RALGDS binding to KRAS G12C, G12D, G12V; assay type: cell-based; conditions: KRAS G12D, in the presence of CYPA, single replicates
T4 construct: expressed in transfected cells; host or cells: U2OS

KRAS–RALGDS [5] = biological target: T5, KRAS–RALGDS (Homo sapiens, UniProt P01116, G12V); test: as above; assay type: cell-based; conditions: KRAS G12V, in the presence of CYPA, single replicates
T5 construct: expressed in transfected cells; host or cells: U2OS

KRAS–RALGDS [6] = biological target: T6, KRAS–RALGDS (Homo sapiens, UniProt P01116, G12C); test: as above; assay type: cell-based; conditions: KRAS G12C, in the presence of CYPA, single replicates
T6 construct: expressed in transfected cells; host or cells: U2OS

WT KRAS = biological target: T7, WT KRAS (Homo sapiens, UniProt P01116+P62937); test: KRAS–RALGDS RID binding inhibition in vitro; assay type: biochemical; set-up: TR-FRET of recombinant KRAS and RALGDS RID: scale not given here; conditions: single replicates
T7 construct: His6-TEV (N); made in house; host or cells: E. coli BL21(DE3)

SMILES: CCn1c(-c2cc(N3CCN(C4CC4)CC3)cnc2[C@H](C)OC)c2c3cc(ccc31)-c1csc(n1)C[C@H](NC(=O)[C@H]1[C@@H]3COC[C@@H]31)C(=O)N1CCC[C@H](N1)C(=O)OCC(C)(C)C2 [RMC-7977]
- Cellular nano-BRET of PI3K⍺ (full-length) binding to KRAS (KRAS–PI3Kα [1]; RMC-7977 4.115 nM): 19.5671 and 18.6162 and 18.8909 and 19.2958
- Cellular nano-BRET of PI3K⍺ (full-length) binding to KRAS (KRAS–PI3Kα [1]; RMC-7977 12.346 nM): 17.0686 and 16.4926 and 17.3848 and 16.3061 and 17.5986 and 16.6607
- Cellular nano-BRET of PI3K⍺ (full-length) binding to KRAS (KRAS–PI3Kα [1]; RMC-7977 37.037 nM): 14.0491 and 14.079 and 13.7071 and 13.4685 and 14.6716 and 13.9571
- Cellular nano-BRET of PI3K⍺ (full-length) binding to KRAS (KRAS–PI3Kα [1]; RMC-7977 111.111 nM): 13.3096 and 12.8133 and 13.2135 and 13.4943 and 13.3044 and 13.1946
- Cellular nano-BRET of PI3K⍺ (full-length) binding to KRAS (KRAS–PI3Kα [1]; RMC-7977 333.333 nM): 13.0302 and 13.2252 and 12.7334 and 12.2876 and 12.5409 and 12.8603
- Cellular nano-BRET of PI3K⍺ (full-length) binding to KRAS (KRAS–PI3Kα [1]; RMC-7977 1000.000 nM): 12.5669 and 12.7724 and 12.7825 and 12.8803 and 12.1527 and 13.0533
- Cellular nano-BRET of PI3K⍺ (full-length) binding to KRAS (KRAS–PI3Kα [2]; RMC-7977 12.346 nM): 15.8391 and 14.8964 and 15.0849 and 14.7399 and 14.2306 and 14.9536
- Cellular nano-BRET of PI3K⍺ (full-length) binding to KRAS (KRAS–PI3Kα [2]; RMC-7977 37.037 nM): 13.3166 and 13.8897 and 13.2531 and 13.6566 and 13.0465 and 13.0111
- Cellular nano-BRET of PI3K⍺ (full-length) binding to KRAS (KRAS–PI3Kα [2]; RMC-7977 111.111 nM): 12.9631 and 12.8542 (2×) and 12.751 and 12.7145 and 12.5362
- Cellular nano-BRET of PI3K⍺ (full-length) binding to KRAS (KRAS–PI3Kα [2]; RMC-7977 333.333 nM): 12.4418 and 12.5115 and 12.0796 and 12.2384 and 12.3217 and 12.5478
- Cellular nano-BRET of PI3K⍺ (full-length) binding to KRAS (KRAS–PI3Kα [2]; RMC-7977 1000.000 nM): 12.9103 and 12.8341 and 12.4299 and 12.848 and 12.6569 and 12.4165
- Cellular nano-BRET of PI3K⍺ (full-length) binding to KRAS (KRAS–PI3Kα [3]; RMC-7977 4.115 nM): 18.9 and 18.4569 and 18.8341 and 18.1839 and 17.8374 and 17.916
- Cellular nano-BRET of PI3K⍺ (full-length) binding to KRAS (KRAS–PI3Kα [3]; RMC-7977 12.346 nM): 15.8416 and 16.2344 and 15.8041 and 16.4517 and 15.615 and 15.4215
- Cellular nano-BRET of PI3K⍺ (full-length) binding to KRAS (KRAS–PI3Kα [3]; RMC-7977 37.037 nM): 13.5244 and 14.2699 and 13.7436 and 13.7375 and 14.0918 and 13.7581
- Cellular nano-BRET of PI3K⍺ (full-length) binding to KRAS (KRAS–PI3Kα [3]; RMC-7977 111.111 nM): 13.3801 and 13.6296 and 13.7851 and 13.3968 and 13.4702 and 13.5585
- Cellular nano-BRET of PI3K⍺ (full-length) binding to KRAS (KRAS–PI3Kα [3]; RMC-7977 333.333 nM): 13.479 and 13.457 and 13.6054 and 13.4472 and 13.3596 and 13.441
- Cellular nano-BRET of PI3K⍺ (full-length) binding to KRAS (KRAS–PI3Kα [3]; RMC-7977 1000.000 nM): 13.0371 and 13.4964 and 13.2247 and 13.6424 and 13.499 and 13.5185
- Kd (NRAS^Q61K): 0.0724 µM
- Cellular nano-BRET of RALGDS (full-length) binding to KRAS (KRAS–RALGDS [4]; RMC-7977 12.346 nM): 21.965 and 22.2278 and 22.7225 and 21.1836 and 19.9465 and 19.3916
- Cellular nano-BRET of RALGDS (full-length) binding to KRAS (KRAS–RALGDS [4]; RMC-7977 37.037 nM): 15.9727 and 15.3384 and 16.4816 and 15.5961 and 16.3731 and 14.4955
- Cellular nano-BRET of RALGDS (full-length) binding to KRAS (KRAS–RALGDS [4]; RMC-7977 111.111 nM): 13.7998 and 12.0846 and 13.3529 and 13.1019 and 13.0482 and 11.2251
- Cellular nano-BRET of RALGDS (full-length) binding to KRAS (KRAS–RALGDS [4]; RMC-7977 333.333 nM): 11.2999 and 11.1999 and 10.8448 and 10.0467 and 10.686 and 10.4797
- Cellular nano-BRET of RALGDS (full-length) binding to KRAS (KRAS–RALGDS [4]; RMC-7977 1000.000 nM): 10.2193 and 10.47 and 10.4459 and 10.0036 and 10.1066 and 10.1313
- Cellular nano-BRET of RALGDS (full-length) binding to KRAS (KRAS–RALGDS [5]; RMC-7977 4.115 nM): 30.1314 and 27.6913 and 29.7303 and 27.1744
- Cellular nano-BRET of RALGDS (full-length) binding to KRAS (KRAS–RALGDS [5]; RMC-7977 12.346 nM): 22.418 and 20.7842 and 21.8208 and 20.4059 and 22.2654 and 20.6652
- Cellular nano-BRET of RALGDS (full-length) binding to KRAS (KRAS–RALGDS [5]; RMC-7977 37.037 nM): 15.6693 and 15.6351 and 15.326 and 16.1305 and 15.8324 and 15.892
- Cellular nano-BRET of RALGDS (full-length) binding to KRAS (KRAS–RALGDS [5]; RMC-7977 111.111 nM): 12.652 and 12.1384 and 12.5044 and 12.7423 and 12.6511 and 12.657
- Cellular nano-BRET of RALGDS (full-length) binding to KRAS (KRAS–RALGDS [5]; RMC-7977 333.333 nM): 11.4911 and 11.1105 and 10.9221 and 11.2754 and 11.3448 and 11.4972
- Cellular nano-BRET of RALGDS (full-length) binding to KRAS (KRAS–RALGDS [5]; RMC-7977 1000.000 nM): 11.0787 and 10.8666 and 11.0137 and 11.1587 and 10.8841 and 10.9076
- Cellular nano-BRET of RALGDS (full-length) binding to KRAS (KRAS–RALGDS [6]; RMC-7977 4.115 nM): 18.1963 and 16.034 and 17.4595 and 15.2439 and 16.9748 and 14.2583
- Cellular nano-BRET of RALGDS (full-length) binding to KRAS (KRAS–RALGDS [6]; RMC-7977 12.346 nM): 13.0313 and 11.9807 and 11.9885 and 11.6119 and 11.6125 and 11.8549
- Cellular nano-BRET of RALGDS (full-length) binding to KRAS (KRAS–RALGDS [6]; RMC-7977 37.037 nM): 11.0793 and 10.028 and 11.2271 and 10.7778 and 11.2352 and 10.211
- Cellular nano-BRET of RALGDS (full-length) binding to KRAS (KRAS–RALGDS [6]; RMC-7977 111.111 nM): 10.2935 and 10.375 and 9.345 and 10.0632 and 10.0122 and 10.2781
- Cellular nano-BRET of RALGDS (full-length) binding to KRAS (KRAS–RALGDS [6]; RMC-7977 333.333 nM): 10.1394 and 10.5924 and 9.785 and 10.0763 and 9.658 and 9.979
- Cellular nano-BRET of RALGDS (full-length) binding to KRAS (KRAS–RALGDS [6]; RMC-7977 1000.000 nM): 10.8628 and 9.92 and 10.139 and 10.0712 and 10.3509 and 9.953
- TR-FRET of recombinant KRAS and RALGDS RID (WT KRAS; RMC-7977 0.005 nM with CYPA): 1.077 and 1.051 and 1.011 and 0.9577
- TR-FRET of recombinant KRAS and RALGDS RID (WT KRAS; RMC-7977 0.046 nM with CYPA): 0.9855 and 0.9772 and 0.9315 and 0.827
- TR-FRET of recombinant KRAS and RALGDS RID (WT KRAS; RMC-7977 0.412 nM with CYPA): 0.9473 and 0.8792 and 0.8105 and 0.8965

Source: publication PMC11111408, “Concurrent inhibition of oncogenic and wild-type RAS-GTP for cancer therapy” (Nature, 2024)
